Data taken from patent US8073630B2, “Pharacogenetic method for prediction of the efficacy of methotrexate monotherapy in recent-onset arthritis” (Exagen Diagnostics, Inc., priority 2006, dated 2011).

Key:
RA patients = test: Replication cohort of RA patients on MTX monotherapy (BeSt and UMCN), response at 6 months; type: in vivo, human; conditions: replication group n=38 (n=17 responders); average MTX dosage 19 mg weekly (range 5-25 mg weekly)
Method: Thirty-eight patients were recruited to replicate the genetic model. The validation cohort data were collected after development of the predictive model, but the investigators were blinded to either the clinical parameters or the genotyping results for the replication group. Fourteen patients were available from the BeSt study; they were treated with initial MTX monotherapy, but DNA samples were obtained after the clinical pharmacogenetic model was developed. Twenty-four patients were available from the RA cohort of the rheumatology department at the University Medical Center Nijmegen (UMCN), consisting of 553 patients (5, 51). Patients were eligible for the replication cohort if they fulfilled the ACR 1987 criteria for RA, started with MTX monotherapy, had not been treated previously with DMARDs other than antimalarial agents, and had disease duration of less than 2 years. In addition, clinical data comprising the prediction model and DNA samples had to be available. In the UMCN cohort, 352 patients were recorded as having received MTX at any time point. […]
The response at 6 months after starting MTX treatment in the group of RA patients (n=38) in the replication model was 45% (n=17), with an average MTX dosage of 19 mg weekly (range 5-25 mg weekly). […] The calculated simple scores in the replication group of RA patients ranged from 1 to 9. […]

[1] = tested on: patients with recent onset RA; test: MTX monotherapy efficacy in recent-onset RA patients (BeSt study subcohort), DAS response at 6 months; type: in vivo, human
From the text: The 205 patients enrolled in this study comprised a subcohort of the 508 patients who participated in the BeSt study. (5) The BeSt study is a randomized, multicenter, single-blinded, clinical study comparing the clinical efficacy of four different treatment strategies in recent onset RA including sequential monotherapy (n=126 starting with MTX), step up to combination therapy of MTX with sulfasalazine (SSZ, n=121 starting with MTX), initial combination therapy with MTX, SSZ and a high tapered dose of prednisolone (n=133), or initial biologic therapy with infliximab plus MTX (n=128). Inclusion criteria for patients in the study comprise the American College of Rheumatology (ACR) 1987 criteria for RA (23), an age ≧18 years, and a disease duration of <2 years. Patients were also required to have active RA, defined as ≧6 swollen joints (out of 66) and ≧6 tender joints (out of 68) and either an erythrocyte sedimentation rate (ESR) ≧28 mm/hour or a score of ≧20 mm on 100 mm visual analogue scale (VAS) for patient's assessment of global health (0=best, 100=worst). […]
Patients allocated initial monotherapy with MTX with available DNA samples (n=205) were included in the current analysis. […] A research nurse who was blinded to the allocated treatment group assessed the DAS every 3 months. […]

- patients who discontinued MTX permanently after experiencing ADEs ([1]; of the 205 patients, within first 6 months): 10 patients
SMILES: CN(Cc1cnc2nc(N)nc(N)c2n1)c1ccc(C(=O)N[C@@H](CCC(=O)O)C(=O)O)cc1 [MTX, Methotrexate]
- response at 6 months after starting MTX treatment (RA patients): 45%
- responders (DAS of ≦2.4, good clinical response) ([1]; at 6 months of treatment with MTX, oral MTX 7.5 mg weekly increasing to 15 mg, stepwise to 25 mg weekly, with folic acid 1 mg daily, 186 patients evaluable (n=87 responders)): 47 % of patients
